According to patent publication US20070128217A1 (priority 2003, published 2007):

Experiments:
[1] = system: control sera (pooled serum of ten healthy LUMC hospital workers; commercial negative donor pooled serum from the Dutch bloodbank); type: binding, human; parameters: Binding of Control serum LUMC to linear peptides / Binding of Control serum Blood-bank to linear peptides / Binding of Control serum LUMC to looped peptides / Binding of Control Serum Blood-Bank to Looped peptides / Binding of Control serum LUMC to linear peptides of the protein M of SARS-CoV Urbani / Binding of Control serum Blood-bank to linear peptides of the protein M of SARS-CoV Urbani / Binding of Control serum LUMC to looped peptides of the protein M of SARS-CoV Urbani / Binding of Control Serum Blood-Bank to Looped peptides of the protein M of SARS-CoV Urbani: unit not given here
[2] = system: rabbit serum obtained by immunizing a rabbit with the SARS-CoV strain Frankfurt 1; type: binding; parameters: Binding of a rabbit serum to linear peptides / Binding of a rabbit serum to looped peptides / Rabbit serum linear peptides / Rabbit serum looped peptides / Binding of a rabbit serum to linear peptides of protein N of SARS-CoV Urbani (Rabbit serum linear peptides) / Binding of a rabbit serum to looped/cyclic peptides of protein N of SARS-CoV Urbani (Rabbit serum looped peptides): unit not given here
[3] = system: antibodies in sera from SARS patients (sera 1a, 1b, 2, 6, 37, 62, London, SARS-yellow, SARS-green); type: binding, human; parameters: Binding of serum 6 to linear peptides of protein X1 of SARS-CoV Urbani / Binding of serum 37 to linear peptides of protein X1 of SARS-CoV Urbani / Binding of serum 6 to looped/cyclic peptide (PEPSCAN-ELISA) / Binding of serum 37 to looped/cyclic peptide (PEPSCAN-ELISA) / Binding of serum 37 to looped/cyclic peptides of protein X1 of SARS-CoV Urbani / Binding of serum 6 to linear peptides of protein X2 / Binding of serum 37 to linear peptides of protein X2 / Binding of serum 37 to looped/cyclic peptides of protein X2 of SARS-CoV Urbani / Binding of serum 6 to linear peptides of protein M of SARS-CoV Urbani / Binding of serum 37 to linear peptides of protein M of SARS-CoV Urbani / Binding of serum 6 to looped/cyclic peptides of protein M of SARS-CoV Urbani / Binding of serum 37 to looped/cyclic peptides of protein M of SARS-CoV Urbani / Binding of serum 6 to linear peptides of protein X3 of SARS-CoV Urbani / Binding of serum 37 to linear peptides of protein X3 of SARS-CoV Urbani / Binding of serum 37 to looped/cyclic peptides of protein X3 of SARS-CoV Urbani / Binding of serum 6 to linear peptides of protein X4 of SARS-CoV Urbani / Binding of serum 37 to linear peptides of protein X4 of SARS-CoV Urbani / Binding of serum 37 to looped/cyclic peptides of protein X4 of SARS-CoV Urbani / Binding of serum 6 to linear peptides of protein X5 of SARS-CoV Urbani / Binding of serum 37 to linear peptides of protein X5 of SARS-CoV Urbani / Binding of serum 37 to looped/cyclic peptides of protein X5 of SARS-CoV Urbani / Binding of serum 6 to linear peptides of protein N of SARS-CoV Urbani / Binding of serum 37 to linear peptides of protein N of SARS-CoV Urbani / Binding of serum 6 to linear peptide (PEPSCAN-ELISA) / Binding of serum 1a to looped/cyclic peptides of protein N of SARS-CoV Urbani / Binding of serum 1b to looped/cyclic peptides of protein N of SARS-CoV Urbani / Binding of serum 2 to looped/cyclic peptides of protein N of SARS-CoV Urbani / Binding of serum 6 to looped/cyclic peptides of protein N of SARS-CoV Urbani / Binding of serum 37 to looped/cyclic peptides of protein N of SARS-CoV Urbani / Binding of serum 62 to looped/cyclic peptides of protein N of SARS-CoV Urbani / Binding of serum London to looped/cyclic peptides of protein N of SARS-CoV Urbani / Binding of serum SARS-green to looped/cyclic peptides of protein N of SARS-CoV Urbani: unit not given here
[4] = system: recombinant human anti-SARS-CoV antibody 03-018; type: binding; parameters: Binding of antibody 03-018 to linear peptides of the N protein of SARS-CoV Urbani / Binding of antibody 03-018 to looped/cyclic peptides of the N protein of SARS-CoV Urbani: unit not given here

Sequence	Binding of serum 1a to linear peptides of protein N of SARS-CoV Urbani [3]	Binding of serum 1a to looped/cyclic peptides of protein N of SARS-CoV Urbani [3]	Binding of serum 1b to linear peptides of protein N of SARS-CoV Urbani [3]	Binding of serum 1b to looped/cyclic peptides of protein N of SARS-CoV Urbani [3]	Binding of serum 2 to linear peptides of protein N of SARS-CoV Urbani [3]	Binding of serum 2 to looped/cyclic peptides of protein N of SARS-CoV Urbani [3]	Binding of serum 6 to linear peptides of protein N of SARS-CoV Urbani [3]	Binding of serum 6 to looped/cyclic peptides of protein N of SARS-CoV Urbani [3]	Binding of serum 37 to linear peptides of protein N of SARS-CoV Urbani [3]	Binding of serum 37 to looped/cyclic peptides of protein N of SARS-CoV Urbani [3]	Binding of serum 62 to linear peptides of protein N of SARS-CoV Urbani [3]	Binding of serum 62 to looped/cyclic peptides of protein N of SARS-CoV Urbani [3]	Binding of serum London to linear peptides of protein N of SARS-CoV Urbani [3]	Binding of serum London to looped/cyclic peptides of protein N of SARS-CoV Urbani [3]	Binding of serum SARS-green to linear peptides of protein N of SARS-CoV Urbani [3]	Binding of serum SARS-green to looped/cyclic peptides of protein N of SARS-CoV Urbani [3]	Binding of serum SARS-yellow to linear peptides of protein N of SARS-CoV Urbani [3]	Binding of serum SARS-yellow to looped/cyclic peptides of protein N of SARS-CoV Urbani [3]	Binding of antibody 03-018 to linear peptides of the N protein of SARS-CoV Urbani [4]	Binding of antibody 03-018 to looped/cyclic peptides of the N protein of SARS-CoV Urbani [4]	other results
GTWLTYHGAIKLDDK	0.2	0.2	0.1	0.1	0.2	0.2	0.1	0.1	0.7	0.4	0.7	0.3	0.5	0.3	0.4	0.1	0.7	0.5	0.1	0.2	Control Serum Blood-Bank Looped peptides [1]: 0.4; Control serum Blood-bank linear peptides [1]: 0.6; Control serum LUMC linear peptides [1]: 0.6; Control serum LUMC looped peptides [1]: 0.4; Binding of a rabbit serum to linear peptides of protein N of SARS-CoV Urbani (Rabbit serum linear peptides) [2]: 0.1; Binding of a rabbit serum to looped/cyclic peptides of protein N of SARS-CoV Urbani (Rabbit serum looped peptides) [2]: 0.2
GVPINTNSGPDDQIG	0.3	0.3	0.1	0.2	0.2	0.2	0.2	0.1	0.8	0.5	0.6	0.3	0.5	0.3	0.5	0.3	0.5	0.2	0.1	0.2	Binding of Control Serum Blood-Bank to Looped peptides [1]: 0.4; Binding of Control serum Blood-bank to linear peptides [1]: 0.7; Binding of Control serum LUMC to linear peptides [1]: 0.7; Binding of Control serum LUMC to looped peptides [1]: 0.4; Binding of a rabbit serum to linear peptides of protein N of SARS-CoV Urbani (Rabbit serum linear peptides) [2]: 0.1; Binding of a rabbit serum to looped/cyclic peptides of protein N of SARS-CoV Urbani (Rabbit serum looped peptides) [2]: 0.2
GYYRRATRRVRGGDG	0.3	0.3	0.1	0.1	0.1	0.4	0.2	0.2	0.3	0.5	0.4	0.4	0.4	0.3	0.2	0.2	0.6	0.2	0.1	0.2	Binding of Control Serum Blood-Bank to Looped peptides [1]: 0.6; Binding of Control serum Blood-bank to linear peptides [1]: 0.6; Binding of Control serum LUMC to linear peptides [1]: 0.6; Binding of Control serum LUMC to looped peptides [1]: 0.5; Recognition of the peptide by the rabbit serum [2]: recognized
HIGTRNPNNNAATVL	0.3	0.6	0.2	0.5	0.4	0.9	0.2	0.6	0.9	1.2	0.8	1.3	0.5	0.7	0.5	0.9	0.7	0.8	0.1	0.3	Binding of Control Serum Blood-Bank to Looped peptides [1]: 1.2; Binding of Control serum Blood-bank to linear peptides [1]: 0.9; Binding of Control serum LUMC to linear peptides [1]: 0.9; Binding of Control serum LUMC to looped peptides [1]: 1.2; Binding of a rabbit serum to linear peptides of protein N of SARS-CoV Urbani (Rabbit serum linear peptides) [2]: 0.1; Binding of a rabbit serum to looped/cyclic peptides of protein N of SARS-CoV Urbani (Rabbit serum looped peptides) [2]: 0.7
